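Each compound was tested at five concentrations against cells in 96-well plates for 48 hours. GI50 = concentration required for 50% inhibition of growth.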 Active and inactive are the calls of the source. Cut-off read from the data, not from the text of the source: active = GI50 up to about 1.1 µM and inactive = higher.
What was measured:
Assay in all cases: NCI anticancer screen, dose series, 48 h
[1] = system: ACHN
[2] = system: CAKI-1
[3] = system: DU-145
[4] = system: EKVX
[5] = system: HCT-116
[6] = system: HL-60
[7] = system: KM12
[8] = system: MDA-MB-231
[9] = system: Malme-3M
[10] = system: NCI-H460
[11] = system: NCI/ADR-RES
[12] = system: OVCAR-5
[13] = system: PC-3
[14] = system: RXF 393
[15] = system: SK-MEL-28
[16] = system: SK-MEL-5
[17] = system: SW-620
[18] = system: UACC-257
[19] = system: NCI-H522
[20] = system: OVCAR-4

Measured: GI50

CCOC(=O)c1ccc(N(C)Cc2cnc3nc(N)nc(N)c3n2)cc1
inactive: [1] 5.05 µM | [2] 14.4 µM | [3] 15.8 µM | [4] 24.6 µM | [5] 3.66 µM | [6] 80.4 µM | [7] 15.8 µM | [8] 21.7 µM | [9] 16.6 µM | [10] 9.79 µM | [11] 7.8 µM | [12] 17.4 µM | [13] 5.02 µM | [14] 5.97 µM | [15] 17.9 µM | [16] 6.1 µM | [17] 6.3 µM | [18] 9.77 µM

COC(=O)[C@@H]1O[C@]12C(CO[Si](C)(C)C(C)(C)C)OC(n1ccc(=O)[nH]c1=O)C2O[Si](C)(C)C(C)(C)C (stereo partly drawn)
inactive: [1] 22 µM | [2] 19.7 µM | [3] 25.2 µM | [4] 25.9 µM | [5] 23.3 µM | [6] 10.1 µM | [7] 31.7 µM | [8] 28.2 µM | [10] 15.5 µM | [19] 19.7 µM | [11] 30.8 µM | [20] 45.7 µM | [12] 25.1 µM | [13] 20.9 µM | [15] 25.5 µM | [16] 19.6 µM | [17] 26.1 µM | [18] 22.1 µM

CCCC(=O)N/S(=N/S(=O)(=O)c1ccc(Cl)cc1)C(Cl)(Cl)Cl (stereo not drawn)
inactive: [1] > 100 µM | [3] > 100 µM | [4] > 100 µM | [5] > 100 µM | [6] > 100 µM | [7] > 100 µM | [8] > 100 µM | [9] > 100 µM | [10] > 100 µM | [11] > 100 µM | [12] > 100 µM | [13] > 100 µM | [14] > 100 µM | [15] > 100 µM | [16] > 100 µM | [17] > 100 µM

CCC12CCCN3CCc4c(n(c5ccccc45)C(O)(C(=O)OC)C1)C32 (stereo not drawn)
inactive: [1] > 100 µM | [2] > 100 µM | [3] > 100 µM | [4] > 100 µM | [5] > 100 µM | [6] > 100 µM | [7] > 100 µM | [8] > 100 µM | [9] > 100 µM | [10] > 100 µM | [19] > 100 µM | [11] > 100 µM | [20] > 100 µM | [12] > 100 µM | [13] > 100 µM | [15] > 100 µM | [16] > 100 µM | [17] > 100 µM | [18] > 100 µM

COc1ccc(NC(=O)/C(=N\NC(=O)C[n+]2ccccc2)c2c(O)c3ccc(O)cc3oc2=O)c([N+](=O)[O-])c1
inactive: [1] > 100 µM | [2] > 100 µM | [3] > 100 µM | [4] > 100 µM | [5] > 100 µM | [6] > 100 µM | [7] 40.1 µM | [8] > 100 µM | [9] > 100 µM | [10] > 100 µM | [19] > 100 µM | [11] > 100 µM | [20] > 100 µM | [12] > 100 µM | [13] > 100 µM | [15] > 100 µM | [16] > 100 µM | [17] > 100 µM | [18] > 100 µM

CC(=O)Nc1ccc(NCC(=O)Nn2cnc3ccc(S(=O)(=O)Nc4ccc(NC(C)=O)cc4)cc3c2=O)cc1
inactive: [1] > 100 µM | [2] > 100 µM | [3] > 100 µM | [4] > 100 µM | [5] > 100 µM | [6] > 100 µM | [7] > 100 µM | [8] > 100 µM | [9] > 100 µM | [10] > 100 µM | [19] > 100 µM | [11] > 100 µM | [20] > 100 µM | [12] > 100 µM | [13] > 100 µM | [15] > 100 µM | [17] > 100 µM | [18] > 100 µM

From ChEMBL document CHEMBL1201862, “PubChem BioAssay data set” (2004)
